# Test results as given in patent publication US20220089578A1, “COMPOUNDS AS GLP-1R AGONISTS” (Terns Pharmaceuticals, Inc., priority 2020, published 2022).
# Biological target: human GLP-1R (Homo sapiens, UniProt P43220)
# Test: GLP-1R Cell Assay 1: cAMP Hunter CHO-K1 GLP1R Gs cell line, HitHunter cAMP assay
# Format: cell-based
# Details: Table 2; cAMP Hunter CHO-K1 GLP1R Gs cells; percent activity normalized to Exendin-4
# Summary of the method: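 Luminescent enzyme-fragment-complementation immunoassay quantified cellular cAMP after 30-60 min compound exposure at 37 °C in HBSS/10 mM HEPES. Data from duplicate runs were normalised to Exendin-4 and fitted nonlinearly for EC50.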
# human GLP-1R, sequence (P43220 24-463): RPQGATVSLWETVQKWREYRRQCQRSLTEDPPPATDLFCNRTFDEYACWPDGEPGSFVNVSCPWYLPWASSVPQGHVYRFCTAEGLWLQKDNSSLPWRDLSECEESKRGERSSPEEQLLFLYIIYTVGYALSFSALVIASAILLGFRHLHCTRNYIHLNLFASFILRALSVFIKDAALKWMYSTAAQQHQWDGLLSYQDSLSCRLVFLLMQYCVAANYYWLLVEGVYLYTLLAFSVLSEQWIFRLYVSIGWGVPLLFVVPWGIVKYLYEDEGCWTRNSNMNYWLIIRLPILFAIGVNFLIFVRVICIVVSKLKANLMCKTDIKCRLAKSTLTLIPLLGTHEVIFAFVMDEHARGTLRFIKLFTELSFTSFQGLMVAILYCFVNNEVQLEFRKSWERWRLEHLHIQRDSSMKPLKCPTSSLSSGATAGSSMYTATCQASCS
row,EC50,Compound
1,43.5 nM,"N#Cc1cccc2c1CCN(c1cccc(N3CCN(Cc4nc5ccc(C(=O)O)cc5n4C[C@@H]4CCO4)CC3)n1)C2 [Compound 120, (S)-2-((4-(6-(5-cyano-3,4-dihydroisoquinolin-2(1H)-yl)pyridin-2-yl)piperazin-1-yl)methyl)-1-(oxetan-2-ylmethyl)-1H-benzo[d]imidazole-6-carboxylic acid]"
2,2.24 nM,"O=C(O)c1ccc2nc(CN3CCN(c4cccc(OCc5nc6cccnc6s5)n4)CC3)n(C[C@@H]3CCO3)c2c1 [Compound 122, (S)-1-(oxetan-2-ylmethyl)-2-((4-(6-(thiazolo[5,4-b]pyridin-2-ylmethoxy)pyridin-2-yl)piperazin-1-yl)methyl)-1H-benzo[d]imidazole-6-carboxylic acid]"
3,1.07 nM,"O=C(O)c1ccc2nc(CN3CCN(c4cccc(OCc5nc6cccc(F)c6s5)n4)CC3)n(C[C@@H]3CCO3)c2c1 [Compound 123, (S)-2-((4-(6-((7-fluorobenzo[d]thiazol-2-yl)methoxy)pyridin-2-yl)piperazin-1-yl)methyl)-1-(oxetan-2-ylmethyl)-1H-benzo[d]imidazole-6-carboxylic acid]"
4,22.9 nM,"CCc1cn(C2CCN(Cc3nc4ccc(C(=O)O)cc4n3C[C@@H]3CCO3)CC2)nc1OCc1ccc(C#N)cc1F [Compound 124, (S)-2-((4-(3-((4-cyano-2-fluorobenzyl)oxy)-4-ethyl-1H-pyrazol-1-yl)piperidin-1-yl)methyl)-1-(oxetan-2-ylmethyl)-1H-benzo[d]imidazole-6-carboxylic acid]"
5,0.0329 nM,"CCn1cncc1Cn1c(CN2CCC(c3cccc(OCc4nc5ccccc5s4)n3)CC2)nc2ccc(C(=O)O)cc21 [Compound 125, 2-((4-(6-(benzo[d]thiazol-2-ylmethoxy)pyridin-2-yl)piperidin-1-yl)methyl)-1-((1-ethyl-1H-imidazol-5-yl)methyl)-1H-benzo[d]imidazole-6-carboxylic acid]"
6,1.09 nM,"O=C(O)c1ccc2nc(CN3CCN(c4cccc(N5CCc6cc(Cl)cc(F)c6C5)n4)CC3)n(C[C@@H]3CCO3)c2c1 [Compound 127, (S)-2-((4-(6-(6-chloro-8-fluoro-3,4-dihydroisoquinolin-2(1H)-yl)pyridin-2-yl)piperazin-1-yl)methyl)-1-(oxetan-2-ylmethyl)-1H-benzo[d]imidazole-6-carboxylic acid]"
7,0.246 nM,"O=C(O)c1ccc2nc(CN3CCN(c4cccc(OCc5nc6ccc(F)cc6s5)n4)CC3)n(C[C@@H]3CCO3)c2c1 [Compound 128, (S)-2-((4-(6-((6-fluorobenzo[d]thiazol-2-yl)methoxy)pyridin-2-yl)piperazin-1-yl)methyl)-1-(oxetan-2-ylmethyl)-1H-benzo[d]imidazole-6-carboxylic acid]"
8,2.6 nM,"N#Cc1ccc2sc(COc3cccc(N4CCN(Cc5nc6ccc(C(=O)O)cc6n5C[C@@H]5CCO5)CC4)n3)nc2c1 [Compound 129, (S)-2-((4-(6-((5-cyanobenzo[d]thiazol-2-yl)methoxy)pyridin-2-yl)piperazin-1-yl)methyl)-1-(oxetan-2-ylmethyl)-1H-benzo[d]imidazole-6-carboxylic acid]"
9,0.966 nM,"O=C(O)c1ccc2nc(CN3CCN(c4cccc(OCc5nc6cnccc6s5)n4)CC3)n(C[C@@H]3CCO3)c2c1 [Compound 130, (S)-1-(oxetan-2-ylmethyl)-2-((4-(6-(thiazolo[4,5-c]pyridin-2-ylmethoxy)pyridin-2-yl)piperazin-1-yl)methyl)-1H-benzo[d]imidazole-6-carboxylic acid]"
10,1.71 nM,"O=C(O)c1ccc2nc(CN3CCN(c4cccc(OCc5nc6c(s5)CCCC6)n4)CC3)n(C[C@@H]3CCO3)c2c1 [Compound 131, (S)-1-(oxetan-2-ylmethyl)-2-((4-(6-((4,5,6,7-tetrahydrobenzo[d]thiazol-2-yl)methoxy)pyridin-2-yl)piperazin-1-yl)methyl)-1H-benzo[d]imidazole-6-carboxylic acid]"
11,34 nM,"N#Cc1ccc(COc2nn(C3CCN(Cc4nc5ccc(C(=O)O)cc5n4C[C@@H]4CCO4)CC3)cc2C2CC2)c(F)c1 [Compound 132, (S)-2-((4-(3-((4-cyano-2-fluorobenzyl)oxy)-4-cyclopropyl-1H-pyrazol-1-yl)piperidin-1-yl)methyl)-1-(oxetan-2-ylmethyl)-1H-benzo[d]imidazole-6-carboxylic acid]"
12,10.6 nM,"CC1Cc2cc(C#N)cc(F)c2CN1c1cccc(N2CCN(Cc3nc4ccc(C(=O)O)cc4n3C[C@@H]3CCO3)CC2)n1 (stereo partly drawn) [Compound 133, 2-((4-(6-(6-cyano-8-fluoro-3-methyl-3,4-dihydroisoquinolin-2(1H)-yl)pyridin-2-yl)piperazin-1-yl)methyl)-1-(((S)-oxetan-2-yl)methyl)-1H-benzo[d]imidazole-6-carboxylic acid]"
13,0.222 nM,"O=C(O)c1ccc2nc(CN3CCC(c4cccc(OCc5ncc(Cl)s5)n4)CC3)n(C[C@@H]3CCO3)c2c1 [Compound 134, (S)-2-((4-(6-((5-chlorothiazol-2-yl)methoxy)pyridin-2-yl)piperidin-1-yl)methyl)-1-(oxetan-2-ylmethyl)-1H-benzo[d]imidazole-6-carboxylic acid]"
14,4.88 nM,"N#Cc1ccc(COc2nn(C3CCN(Cc4nc5ccc(C(=O)O)cc5n4C[C@@H]4CCO4)CC3)cc2C(F)F)c(F)c1 [Compound 135, (S)-2-((4-(3-((4-cyano-2-fluorobenzyl)oxy)-4-(difluoromethyl)-1H-pyrazol-1-yl)piperidin-1-yl)methyl)-1-(oxetan-2-ylmethyl)-1H-benzo[d]imidazole-6-carboxylic acid]"
15,109 nM,"N#Cc1ccc(COc2nn(C3CCN(Cc4nc5ccc(C(=O)O)cc5n4C[C@@H]4CCO4)CC3)cc2CO)c(F)c1 [Compound 136, (S)-2-((4-(3-((4-cyano-2-fluorobenzyl)oxy)-4-(hydroxymethyl)-1H-pyrazol-1-yl)piperidin-1-yl)methyl)-1-(oxetan-2-ylmethyl)-1H-benzo[d]imidazole-6-carboxylic acid]"
16,0.0514 nM,"CCn1cncc1Cn1c(CN2CCC(c3cccc(N4CCc5cc(C#N)cc(F)c5C4)n3)CC2)nc2ccc(C(=O)O)cc21 [Compound 137, 2-((4-(6-(6-cyano-8-fluoro-3,4-dihydroisoquinolin-2(1H)-yl)pyridin-2-yl)piperidin-1-yl)methyl)-1-((1-ethyl-1H-imidazol-5-yl)methyl)-1H-benzo[d]imidazole-6-carboxylic acid]"
17,2.65 nM,"O=C(O)c1ccc2nc(CN3CCC(c4cccc(OCc5nccs5)n4)CC3)n(C[C@@H]3CCO3)c2c1 [Compound 139, (S)-1-(oxetan-2-ylmethyl)-2-((4-(6-(thiazol-2-ylmethoxy)pyridin-2-yl)piperidin-1-yl)methyl)-1H-benzo[d]imidazole-6-carboxylic acid]"
18,0.00833 nM,"CCn1cncc1Cn1c(CN2CCC(c3cccc(OCc4ccc(C#N)cc4F)n3)CC2)nc2ccc(C(=O)O)cc21 [Compound 142, 2-((4-(6-((4-cyano-2-fluorobenzyl)oxy)pyridin-2-yl)piperidin-1-yl)methyl)-1-((1-ethyl-1H-imidazol-5-yl)methyl)-1H-benzo[d]imidazole-6-carboxylic acid]"

row,Compound,EC50
1,"CCn1cncc1Cn1c(CN2CCC3(c4cccc5c4OC(C)(c4ccc(Cl)cc4F)O5)CC3C2)nc2ccc(C(=O)O)cc21 (stereo not shown) [Compound 138, 2-((6-(2-(4-chloro-2-fluorophenyl)-2-methylbenzo[d][1,3]dioxol-4-yl)-3-azabicyclo[4.1.0]heptan-3-yl)methyl)-1-((1-ethyl-1H-imidazol-5-yl)methyl)-1H-benzo[d]imidazole-6-carboxylic acid]",0.108 nM

# Same assay, conditions: Table 3; cAMP Hunter CHO-K1 GLP1R Gs cells; percent activity normalized to Exendin-4
row,EC50,Compound
1,> 500 nM,"N#Cc1ccc(CN2CCCc3ccc(C4CCN(Cc5nc6ccc(C(=O)O)cc6n5C[C@@H]5CCO5)CC4)nc32)c(F)c1 [Compound 143, (S)-2-((4-(8-(4-cyano-2-fluorobenzyl)-5,6,7,8-tetrahydro-1,8-naphthyridin-2-yl)piperidin-1-yl)methyl)-1-(oxetan-2-ylmethyl)-1H-benzo[d]imidazole-6-carboxylic acid]"
2,> 500 nM,"N#Cc1ccc(N2CCc3ccc(N4CCN(Cc5nc6ccc(C(=O)O)cc6n5C[C@@H]5CCO5)CC4)nc3C2)c(F)c1 [Compound 144, (S)-2-((4-(7-(4-cyano-2-fluorophenyl)-5,6,7,8-tetrahydro-1,7-naphthyridin-2-yl)piperazin-1-yl)methyl)-1-(oxetan-2-ylmethyl)-1H-benzo[d]imidazole-6-carboxylic acid]"
3,> 500 nM,"N#Cc1ccc(CCn2ccc(C3CCN(Cc4nc5ccc(C(=O)O)cc5n4C[C@@H]4CCO4)CC3)n2)c(F)c1 [Compound 145, (S)-2-((4-(1-(4-cyano-2-fluorophenethyl)-1H-pyrazol-3-yl)piperidin-1-yl)methyl)-1-(oxetan-2-ylmethyl)-1H-benzo[d]imidazole-6-carboxylic acid]"
4,> 500 nM,"N#Cc1ccc(-n2ccc3c(C4CCN(Cc5nc6ccc(C(=O)O)cc6n5C[C@@H]5CCO5)CC4)cccc3c2=O)c(F)c1 [Compound 147, (S)-2-((4-(2-(4-cyano-2-fluorophenyl)-1-oxo-1,2-dihydroisoquinolin-5-yl)piperidin-1-yl)methyl)-1-(oxetan-2-ylmethyl)-1H-benzo[d]imidazole-6-carboxylic acid]"
5,> 500 nM,"N#Cc1ccc(CN2CCCc3ccc(N4CCN(Cc5nc6ccc(C(=O)O)cc6n5C[C@@H]5CCO5)CC4)nc32)c(F)c1 [Compound 148, (S)-2-((4-(8-(4-cyano-2-fluorobenzyl)-5,67,8-tetrahydro-1,8-naphthyridin-2-yl)piperazin-1-yl)methyl)-1-(oxetan-2-ylmethyl)-1H-benzo[d]imidazole-6-carboxylic acid]"
6,> 500 nM,"O=C(O)c1ccc2nc(CN3CCN(c4ccc5c(n4)N(Cc4ccccc4)CCO5)CC3)n(C[C@@H]3CCO3)c2c1 [Compound 149, (S)-2-((4-(4-benzyl-3,4-dihydro-2H-pyrido[3,2-b][1,4]oxazin-6-yl)piperazin-1-yl)methyl)-1-(oxetan-2-ylmethyl)-1H-benzo[d]imidazole-6-carboxylic acid/]"
